Legend:
[1] = target: T1, bovine serum albumin (BSA) (Bos taurus, UniProt P02769); test: UPLC–DAD analysis of supernatants from the PPC experiment (proportion of precipitated BSA); type: biochemical; conditions: highest tested concentration of 2.25 mM (molar ratio to BSA 23:1)
T1 construct: purchased Sigma-Aldrich (MO, USA)
Method: (§1) PPC was measured by using the turbidimetric well-plate reader assay of Engström et al. (2019), with few modifications to the volumes of the reactants and to the number of replicates, for instance. The analyzes of the supernatants were done following Engström et al. (2022).[21] Briefly, 75 μL of BSA solution and 75 μL of the solutions of compounds 2–14 were pipetted to well plates, and the intensity of the forming haze was measured periodically at 420 nm using a well-plate reader. The PPC of the PC analogue 1 was not measured because it was not soluble in suitable solvents. The reactions were monitored for 30 min, and the highest intensities were recorded. A single background measurement was done at each concentration with all the components in the wells but the BSA. The reactions were done in triplicates (and in duplicates with PC C1), and the concentrations of the compounds 2–14 in the reaction mixtures were 0.25 0.65, 1.05, 1.45, 1.85, and 2.25 mM. The concentration of the BSA was kept constant at 0.1 mM. Therefore, the tested molar ratios to BSA were 2.5:1, 6.5:1, 10.5:1, 14.5:1, 18.5:1, and 22.5:1. After the 30 min, the supernatants and precipitates of the replicates were combined in a 1.5 mL Eppendorf tube and separated by centrifuging. The supernatants were then analyzed by UPLC–DAD using the shorter phenyl column (section 2.4) to quantify the leftover compounds 2–14 and BSA. Leftover BSA was quantified using a separately prepared linear calibration curve (1–125 μM), and the compounds 2–14 were quantified by analyzing the background solutions from the well-plate reader assay and constructing a calibration curve from these analyzes. BSA was quantified at 280 nm and compounds 2–14 at 280–320 nm. The wavelength of maximal UV absorption for compounds 2–14 could not be utilized in quantification because the diode array detector was saturated at the optimal wavelengths due to the high concentrations used in the well-plate reader assay. Therefore, off-optimal wavelengths were chosen for quantification separately for each compound 2–14 to reduce intensities and to obtain linear fits for calibration curves.

[2] = Octanol–water partition, shake-flask method; type: physicochemical; conditions: 200 μM, n-octanol/water, 2 h mixing, SE in parentheses
Method: The shake-flask method was done using 2 mL Eppendorf tubes and three replicates. […] After mixing, aliquots of 500 μL were transferred to new Eppendorf tubes, and 500 μL of n-octanol was added that had been saturated with water. The solvent systems were mixed in a vortex mixer for 2 h, and then both the water and the n-octanol layers as well as the initial water solution were analyzed by UPLC–DAD using the shorter phenyl column (section 2.4). The chromatograms were integrated using TargetLynx software (version 4.2), and the octanol–water partition coefficient, log P, was calculated as the log10 of the ratio of area in n-octanol phase to the area in water phase. Recovery % was calculated by summing the areas in both phases and dividing the summation with the area measured from the initial water phase.

[3] = Stability in phosphate buffered saline; type: physicochemical; conditions: phosphate buffered saline, pH 7.4, PBS pH 7.4, 0.01 M phosphate, 150 μM, first-order kinetics, UV 280 nm; read-out: half-life (t1/2)
Method: The stabilities of the compounds were measured in PBS, which was prepared from commercially available tablets that were dissolved in ultrapure water. The phosphate concentration was 0.01 M, the pH was 7.4, and the potassium and sodium chloride concentrations were 0.0027 and 0.137 M, respectively. […] The compounds were dissolved in 2 mL of the PBS solution in Eppendorf tubes, vortexed for approximately 15 min, and filtered through a 0.2 μm PTFE filter to a 2 mL UPLC vial. The solutions were analyzed with the UPLC-DAD-HESI-Orbitrap-MS instrument using the longer phenyl column (section 2.4), and repeated injections were done every 47.5 min for approximately 12 h. […] The UV chromatograms at 280 nm were integrated using the QuanBrowser module in Xcalibur software (version 4.1.31.9), and the main degradation products were identified in QualBrowser by their high-resolution mass spectra and UV spectra. With each compound, the measured areas were transformed to proportional areas by dividing all areas with the initial area in the first injection of the time series, and the data was further loge transformed and fitted with first-order linear regression curves. The regression curves were supplemented with 95% confidence intervals to visualize the uncertainty in the fitted curves. The half-lives were calculated from the slope (k) parameters of the linear regression model using the following equation: [drawing 1]

[4] = target: T1, bovine serum albumin (BSA); test: Protein precipitation capacity (PPC), turbidimetric well-plate reader assay with BSA, log-normal dose–response model; type: biochemical; conditions: SE in parentheses
Method: as §1
All statistical analyzed were performed with R (version 4.2.2) in the integrated development environment Rstudio (version 2022.12.0.353).[23],[24] The PPC data was fitted with a dose–response model using the package drc.[25] Various models, e.g., logit and log-normal models, were compared using the mselect function, and the best fitting model was chosen based on the Akaike’s information criterion and residual error when comparing all models, and log-likelihood was used when comparing nested models. All compounds were assumed to have the same upper and lower asymptotes; the former was estimated from the experimental data, and the latter was fixed at zero.

T1 sequence (P02769 25-607): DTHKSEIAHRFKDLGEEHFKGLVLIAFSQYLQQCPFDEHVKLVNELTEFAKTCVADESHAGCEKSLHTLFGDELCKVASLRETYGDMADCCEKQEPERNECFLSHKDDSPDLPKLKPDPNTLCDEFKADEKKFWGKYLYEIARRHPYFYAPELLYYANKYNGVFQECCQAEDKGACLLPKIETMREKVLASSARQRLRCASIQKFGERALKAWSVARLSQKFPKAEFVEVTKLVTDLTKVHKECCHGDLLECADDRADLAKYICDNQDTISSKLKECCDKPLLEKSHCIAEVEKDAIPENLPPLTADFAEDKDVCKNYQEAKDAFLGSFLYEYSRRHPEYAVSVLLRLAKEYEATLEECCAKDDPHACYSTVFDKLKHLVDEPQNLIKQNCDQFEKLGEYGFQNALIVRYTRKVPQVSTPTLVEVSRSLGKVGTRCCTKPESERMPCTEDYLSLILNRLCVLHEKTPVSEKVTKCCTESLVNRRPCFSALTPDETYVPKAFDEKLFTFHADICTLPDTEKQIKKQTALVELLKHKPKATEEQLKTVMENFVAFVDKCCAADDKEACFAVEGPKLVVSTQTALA

Which “proportion of BSA precipitated” value [1] does the source give for `O=C(O[C@@H]1Cc2c(O)cc(O)cc2O[C@@H]1c1cc(O)c(O)c(O)c1)c1cc(O)c(O)c(O)c1` [Compound 14, Epigallocatechin-3-gallate, reference compound] here?
The value was “almost all”.

And the KOW [2]?
Its KOW is 13.58 (0.06).

What about the logP at 2 h ([2]; read-out: log P (log10KOW)) of the same molecule?
Its logP at 2 h is 1.13.

And the half-life at 150 μM [3]?
Its half-life at 150 μM is 1.4 h.

And the “ED90 (mM)” value ([4]; BSA 0.1 mM)?
The value was 1.76 (0.06) mM.

And the EC50 ([4]; concentration giving 50% of maximal absorbance (420 nm haze), BSA 0.1 mM, read-out: ED50 (the source's name))?
The EC50 was 890 µM.

And the slope ([4]; slope parameter of log-normal dose–response model)?
Its slope is 1.88 (0.07).
